Experiments:
[1] = In vivo microPET imaging of normal nude mice; conditions: judged from imaging results
Protocol: The stability of the resulting ^18F—B compound is critical as free [^18F]-fluoride ions could bind to the bones giving rise to unwanted and interfering background signals.^14 The stability of compound [^18F]-[2-F]^+ was first studied in PBS buffer at pH 7.5 over a period of several hours. […] In order to validate the approach for in vivo PET imaging, [^18F]-[2-F]^+ (prepared via the aqueous route) was injected into normal nude mice that were imaged using a microPET scanner 1 h, 2 h, and 4 h post injection. […] Thus, although probe compound [^18F]-[2-F]^+ lacks any specific targeting functionalities, its accumulation in these organs constitutes a normal phenomenon, in line with its hydrophobic and cationic nature.
(§1) Obvious bone uptake even at 3 h post injection was not observed, which is consistent with the reported high stability of BODIPY dyes. Next, the dual modality potential of the probe was confirmed. The animal was euthanized and liver, kidneys and muscle were harvested for ex vivo PET/fluorescence imaging. […] We also sectioned the kidney and observed the BODIPY fluorescent signal under microscope.
The nude mice were imaged using a microPET R4 rodent model scanner (Concorde Microsystems, Knoxyille, Tenn.) in the prone position. The mice were injected with 50-80 μCi of [^18F]-[2-F]^+ via the tail vein. […]

[2] = Ex vivo fluorescence and microPET imaging of dissected organs; type: in vivo, nude mouse; conditions: organs harvested after microPET scan 4 h post injection
From the text: The dual modality operation of the probe was confirmed. To this end, the animal was euthanized and selected organs harvested for ex vivo fluorescence and microPET imaging (FIG. 4). The fluorescence images were obtained by irradiation of the organs at λ=500 nm. This wavelength was chosen because it falls within the absorption band of [2-F]^+ (see Supporting Information). The fluorescence image was reconstructed based on the emission intensity measured at λ=580±20 nm, a wavelength which is within the fluorescence band of [2-F]^+ (see Supporting Information).
as §1
To cross-evaluate the dual modality tracer ^18F-2-F, ex vivo fluorescence imaging was performed using a Lumina II small-animal imaging system (Xenogen, Alameda, Calif.). After the microPET imaging was done, the nude mouse was sacrificed. […] Fluorescent images were acquired and analyzed using Living Image 2.5 software (Xenogen). The fluorescence images were acquired using a 2-s exposure time (f-stop 4).

stability in vivo [1]: stable in vivo
uptake in heart, representative bones and muscles, ex vivo [2]: minimal uptake
SMILES: CC1=CC(C)=[N+]2C1=C(c1ccc([N+](C)(C)C)cc1)c1c(C)cc(C)n1[B-]2(F)c1ccccc1 (stereo not drawn) [[2-F]^+]
accumulation of the probe in organs, ex vivo microPET and fluorescence ([2]; excitation 500 nm, emission 580±20 nm): accumulation of the probe in the liver and kidneys
